The target in one assay is T1, Axl (Homo sapiens, UniProt P30530).
T1 sequence (P30530 26-894): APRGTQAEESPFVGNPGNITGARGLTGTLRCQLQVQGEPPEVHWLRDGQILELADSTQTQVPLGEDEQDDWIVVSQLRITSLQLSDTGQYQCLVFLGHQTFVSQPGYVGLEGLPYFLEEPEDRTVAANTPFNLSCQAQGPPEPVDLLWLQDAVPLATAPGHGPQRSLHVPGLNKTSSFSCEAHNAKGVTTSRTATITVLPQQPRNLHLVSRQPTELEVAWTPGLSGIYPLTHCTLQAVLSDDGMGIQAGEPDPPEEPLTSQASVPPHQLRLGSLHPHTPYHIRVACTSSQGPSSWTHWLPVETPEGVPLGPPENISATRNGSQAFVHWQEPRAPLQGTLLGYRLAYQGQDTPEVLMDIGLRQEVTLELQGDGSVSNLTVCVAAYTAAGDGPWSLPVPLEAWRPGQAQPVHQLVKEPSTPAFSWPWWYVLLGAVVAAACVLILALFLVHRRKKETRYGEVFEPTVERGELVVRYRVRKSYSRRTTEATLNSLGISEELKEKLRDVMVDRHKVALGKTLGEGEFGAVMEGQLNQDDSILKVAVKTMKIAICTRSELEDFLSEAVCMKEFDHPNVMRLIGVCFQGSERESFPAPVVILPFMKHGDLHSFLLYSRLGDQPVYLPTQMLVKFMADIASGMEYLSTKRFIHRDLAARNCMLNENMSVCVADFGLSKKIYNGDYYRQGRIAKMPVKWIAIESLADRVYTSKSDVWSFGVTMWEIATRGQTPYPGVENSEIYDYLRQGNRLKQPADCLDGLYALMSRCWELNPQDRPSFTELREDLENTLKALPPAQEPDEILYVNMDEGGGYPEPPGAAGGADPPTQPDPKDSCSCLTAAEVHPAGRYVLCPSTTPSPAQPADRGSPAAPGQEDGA
The experiment in a line: Biochemical potency, HTRF KinEASE-TK kinase assay. The following applies: 5 nM AXL, 700 μM ATP. Set-up: purchased Invitrogen. The method, then: Measurement of Biochemical Compound Potency of Axl Inhibitors
Purified recombinant human AXL, TYRO3 and MER proteins were purchased from Invitrogen™. 10 nM AXL, 2 nM TYRO3 or MER were incubated with varying concentrations of compounds in 50 mM HEPES, pH 7.4, 10 mM MgCl2, 0.01% BSA, 1 mM DTT and 2% DMSO in a total volume of 20 μl in a 384-well microplate (Corning™ #3640) at RT for 1 h. The AXL, TYRO3 and MER enzymatic reaction was initiated by transferring 10 μl of enzyme and compound mixture into 10 μl of 1.6 μM TK Substrate-biotin (HTRF® KinEASE-TK kit, Cisbio) and 1400 μM ATP pre-incubated in 50 mM HEPES, pH 7.4, 10 mM MgCl2, 0.01% BSA, 1 mM DTT in a 384-well microplate (Corning™ #3640) at RT, giving the final reaction conditions: 5 nM AXL, 1 nM TYRO3 or MER, 800 nM TK Substrate-biotin and 700 μM ATP in 50 mM HEPES, pH 7.4, 10 mM MgCl2, 0.01% BSA, 1 mM DTT and 1% DMSO with varying concentrations of compounds. Following 2 h incubation at RT, the AXL, TYRO3 and MER enzymatic reaction was stopped by transfer of 10 μl of reaction into 10 μl of detection mix (400 nM Streptavidin-XL665, 200-fold dilution TK Antibody-Cryptate and detection buffer, HTRF® KinEASE-TK kit, Cisbio) in a white 384-well microplate (Perkin Elmer, OptiPlate 384). After 1 h incubation at RT, the plate was put into a plate reader (Evision) to read at 665/620 nm (acceptor/donor) for HTRF. The value of the DMSO blank (MIN inhibition=100% activity) was used as a negative control. The positive control was established by adding 5 μl of enzyme and DMSO mixture into 10 μl of detection mix followed by addition of 5 μl of TK Substrate-biotin and ATP mixture (MAX inhibition=0% activity). To calculate the percent activity, Equation 1 was used. Ratio665/620 is the value at a given compound concentration: […]
In general terms: Time-resolved FRET reads energy transfer from a long-lived donor to a nearby acceptor.

Another assay has as its target T2, p-AXL (Homo sapiens, UniProt P30530).
T2 construct: expressed in transfected cells; host or cells: HEK293T
T2 sequence (P30530 26-894): T1 sequence (P30530 26-894)
The experiment in a line: Axl phosphorylation inhibition ELISA in HEK293T cells transfected with NanoLuc-tagged AXL. It is filed as cell-based. As to conditions: 1 h compound incubation, media (OptiMEM). The protocol: [formula] Measurement of Axl Phosphorylation Inhibition
The dose-response assays were performed in S-Bio PrimeSurface® 3D culture: Ultra-low Attachment Plates: 384 well, U bottom (#MS-9384UZ) containing 400 nL of 22 serial 2-fold compound dilutions using Bravo and Echo. ELISA assay was performed on Pierce™ streptavidin coated high capacity 384-well white plates (Thermofisher Cat #15505). The plates were coated overnight at 4° C. with 50 μl/well of biotinlyated phospho-tyrosine mouse mAb (Cell Signaling Technology, 9417s).
HEK293T cells were grown in DMEM containing 10% FBS, 1% Pen/Strep, 1% G-Max. A day before the assay, cells were transiently transfected with 6.8 μg of NanoLuc-tagged AXL plasmid DNA and 8 μg of carrier DNA using FuGENE® HD Transfection Reagent (Promega) according to manufacturer's instructions. On the day of the assay, transfected cells were harvested and resuspended in OptiMEM. 70,000 cells/well were added to the compounds containing assay plates. After a gentle mix and a short spin, the plates were incubated at 37° C. After 1 h, the cells were lysed followed by a brief centrifugation and 30 min of shaking at 300 rpm. Meanwhile, the antibody coated plates were brought to room temperature and then were washed ten times in PBS with 0.05% Tween 20 (ELISA-wash buffer). 50 μl/well of cell lysate was transferred to the ELISA plates and shaken for 2 hours. After washing again with the ELISA wash buffer, the samples were diluted with 25 μl of PBS. The captured NanoLuc tagged p-AXL was detected using Nano-Glo® Luciferase Assay System (Promega) and manufacturer's instruction. The luminescence signal was measured using Envision plate reader. IC50 values were determined by fitting the data to a standard 4-parameter logistic equation.
For orientation: ELISA stands for enzyme-linked immunosorbent assay.

What is called IC50 is the point on the concentration scale where inhibition reaches its midpoint.

For `Cc1cccnc1-c1ccc(-c2n[nH]c3ncc(-c4ccc5c(c4)CC(N4CCCC4)CC5)cc23)cc1` (centres unmarked) [Example 67, 3-Methyl-2-(4-{5-[7-(pyrrolidin-1-yl)-5,6,7,8-tetrahydronaphthalen-2-yl]-1H-pyrazolo[3,4-b]pyridin-3-yl}phenyl)pyridine], the IC50 on Axl was less than 100 nM; on p-AXL, 100 to 1000 nM.
Taken in the same sequence, the figures for `Cc1ccc(C)c(-c2ccc(-c3n[nH]c4ncc(-c5ccc6c(c5)CC[C@@H](N5CCCC5)CC6)cc34)cc2)n1` [Example 139, 3,6-Dimethyl-2-(4-{5-[(7S)-7-(pyrrolidin-1-yl)-6,7,8,9-tetrahydro-5H-benzo[7]annulen-2-yl]-1H-pyrazolo[3,4-b]pyridin-3-yl}phenyl)pyridine] were less than 100 nM and less than 100 nM.
Taken in the same sequence, the figures for `Cc1cnc(-c2ccc(-c3n[nH]c4ncc(-c5ccc6c(c5)CC[C@@H](N5CCCC5)CC6)cc34)cc2)c(C)n1` [Example 189, 3,5-Dimethyl-2-(4-{5-[(7S)-7-(pyrrolidin-1-yl)-6,7,8,9-tetrahydro-5H-benzo[7]annulen-2-yl]-1H-pyrazolo[3,4-b]pyridin-3-yl}phenyl)pyrazine] were less than 100 nM and 100 to 1000 nM.
Regarding `Cc1cccnc1-c1ccc(-c2n[nH]c3ncc(-c4ccc5c(c4)CCN(C4CCCC4)CC5)cc23)cc1` [Example 24, 3-Cyclopentyl-7-{3-[4-(3-methylpyridin-2-yl)phenyl]-1H-pyrazolo[3,4-b]pyridin-5-yl}-2,3,4,5-tetrahydro-1H-3-benzazepine], the values for the IC50 on Axl and against p-AXL were less than 100 nM and 100 to 1000 nM, respectively.
`Cc1cnc(C)c(-c2ccc(-c3n[nH]c4ncc(-c5ccc6c(c5)CC[C@@](C)(N5CCC[C@H]5C)CC6)cc34)nc2)n1` [Example 61, 2,5-Dimethyl-3-(6-{5-[(7S)-7-methyl-7-[(2R)-2-methylpyrrolidin-1-yl]-6,7,8,9-tetrahydro-5H-benzo[7]annulen-2-yl]-1H-pyrazolo[3,4-b]pyridin-3-yl}pyridin-3-yl)pyrazine]: the IC50 on Axl and against p-AXL was less than 100 nM throughout.
With `Cc1cccnc1-c1ccnc(-c2c[nH]c3ncc(-c4ccc5c(c4)CC[C@@H](N4C6COCC4C6)CC5)cc23)c1` [Example 83, 3-Methyl-2′-{5-[(7S)-7-{3-oxa-6-azabicyclo[3.1.1]heptan-6-yl}-6,7,8,9-tetrahydro-5H-benzo[7]annulen-2-yl]-1H-pyrrolo[2,3-b]pyridin-3-yl}-2,4′-bipyridine], the IC50 at Axl and on p-AXL was less than 100 nM in each case.
Turning to `Cc1ccc(C(C)(C)O)nc1-c1ccc(-c2c[nH]c3ncc(-c4ccc5c(c4)CC[C@@H](N4C6COCC4C6)CC5)cc23)cc1` [Example 8, 2-[5-Methyl-6-(4-{5-[(7S)-7-{3-oxa-6-azabicyclo[3.1.1]heptan-6-yl}-6,7,8,9-tetrahydro-5H-benzo[7]annulen-2-yl]-1H-pyrrolo[2,3-b]pyridin-3-yl}phenyl)pyridin-2-yl]propan-2-ol], the IC50 against Axl was less than 100 nM; on p-AXL it was 100 to 1000 nM.
On to `Cc1cccnc1-c1ccc(-c2n[nH]c3ncc(-c4ccc5c(c4)CC[C@@H](N[C@H]4CCCOC4)CC5)cc23)nc1` [Example 106, (3S)—N-[(7S)-2-(3-{3-Methyl-[2,3′-bipyridin]-6′-yl}-1H-pyrazolo[3,4-b]pyridin-5-yl)-6,7,8,9-tetrahydro-5H-benzo[7]annulen-7-yl]oxan-3-amine], for which the IC50 at Axl and on p-AXL was less than 100 nM throughout.
Turning to `CCn1ncnc1-c1ccc(-c2n[nH]c3ncc(-c4ccc5c(c4)CC[C@@H](N4C6COCC4C6)CC5)cc23)cc1` [Example 138, 6-[(7S)-2-{3-[4-(1-Ethyl-1H-1,2,4-triazol-5-yl)phenyl]-1H-pyrazolo[3,4-b]pyridin-5-yl}-6,7,8,9-tetrahydro-5H-benzo[7]annulen-7-yl]-3-oxa-6-azabicyclo[3.1.1]heptane], the IC50 against Axl and on p-AXL was less than 100 nM throughout.
In the case of `Cc1ccc(C)c(-c2ccc(-c3n[nH]c4ncc(-c5ccc6c(c5)CC[C@@](C)(N5CCC[C@H]5C)CC6)cc34)cc2)n1` [Example 136, 3,6-Dimethyl-2-(4-{5-[(7S)-7-methyl-7-[(2R)-2-methylpyrrolidin-1-yl]-6,7,8,9-tetrahydro-5H-benzo[7]annulen-2-yl]-1H-pyrazolo[3,4-b]pyridin-3-yl}phenyl)pyridine], the IC50 at Axl and on p-AXL was less than 100 nM throughout.
As for `Cc1cc(=O)n(C)nc1-c1ccc(-c2c[nH]c3ncc(-c4ccc5c(c4)CC[C@@H](N4C6COCC4C6)CC5)cc23)cc1` [Example 20, 2,5-Dimethyl-6-(4-{5-[(7S)-7-{3-oxa-6-azabicyclo[3.1.1]heptan-6-yl}-6,7,8,9-tetrahydro-5H-benzo[7]annulen-2-yl]-1H-pyrrolo[2,3-b]pyridin-3-yl}phenyl)-2,3-dihydropyridazin-3-one], the IC50 against Axl and against p-AXL was less than 100 nM each time.
For `COc1ccnc(-c2ccc(-c3n[nH]c4ncc(-c5ccc6c(c5)CC[C@@H](N5C7COCC5C7)CC6)cc34)cc2)c1OC` [Example 152, 6-[(7S)-2-{3-[4-(3,4-Dimethoxypyridin-2-yl)phenyl]-1H-pyrazolo[3,4-b]pyridin-5-yl}-6,7,8,9-tetrahydro-5H-benzo[7]annulen-7-yl]-3-oxa-6-azabicyclo[3.1.1]heptane], the IC50 against Axl and at p-AXL was less than 100 nM in each case.
Regarding `Cn1ncnc1-c1ccc(-c2n[nH]c3ncc(-c4ccc5c(c4)CC[C@@H](N4C[C@@H]6C[C@H]4CO6)CC5)cc23)cc1` [Example 135, (1S,4S)-5-[(7S)-2-{3-[4-(1-Methyl-1H-1,2,4-triazol-5-yl)phenyl]-1H-pyrazolo[3,4-b]pyridin-5-yl}-6,7,8,9-tetrahydro-5H-benzo[7]annulen-7-yl]-2-oxa-5-azabicyclo[2.2.1]heptane], the IC50 on Axl and on p-AXL was less than 100 nM in each case.

The values are drawn from patent US12195482B1 (Arcus Biosciences, Inc., priority 2022, dated 2025).
